In patent US7183306B2, “Pyrazole derivatives” (Astellas Pharma Inc., priority 2002, dated 2007):

SMILES | melting point [°C]
COCOc1ccc(-c2cc([S+](C)[O-])nn2-c2ccc(OC)cc2)cc1 (stereo not drawn) | 136.9 to 137.3
COc1ccc(-n2nc(C#N)cc2-c2ccc(OCCO)cc2)cn1 | 105 to 107
CNC(=O)NCCc1ccc(-c2cc(C(F)(F)F)nn2-c2ccc(OC)nc2)cc1 | 149
COc1ccc(-n2nc(C(F)(F)F)cc2-c2ccc(CCNC(C)=O)cc2)cc1 | 79 to 80
COc1ccc(-n2nc(C(F)(F)F)cc2-c2ccc(CCNS(N)(=O)=O)cc2)cn1 | 114 to 115
COc1ccc(-n2nc(C3CC3)cc2-c2ccc(OCCNS(N)(=O)=O)cc2)cc1 | 142 to 143
CCN(C)C(=O)c1cc(-c2ccc(CCNS(C)(=O)=O)cc2)n(-c2ccc(OC)cc2)n1 | 162 to 163
COc1ccc(-n2nc(C(=O)C(C)C)cc2-c2ccc(OCCN)cc2)cc1.Cl | 129 to 142
COc1ccc(-n2nc(C#N)cc2-c2ccc(OCCN)cc2)cc1.Cl | 186 to 189
COc1ccc(-n2nc(C(=O)C(C)C)cc2-c2ccc(OCCNC(N)=O)cc2)cc1 | 144 to 145
COc1ccc(-n2nc(C(F)(F)F)cc2-c2ccc(CCC[S+](C)[O-])cc2)cn1 (stereo not drawn) | 92 to 93
COc1ccc(-n2nc(C(=O)C(C)C)cc2-c2ccc(OCCO)cc2)cc1 | 95 to 96
COc1ccc(-n2nc(C(=O)C3CC3)cc2-c2ccc(OCCO)cc2)cc1 | 132 to 133
COc1ccc(-n2nc(OC)cc2-c2ccc(OCCO)cc2)cc1 | 107 to 109
C=C(C)c1cc(-c2ccc(OCCNS(C)(=O)=O)cc2)n(-c2ccc(OC)nc2)n1 | 96 to 99
COc1ccc(-n2nc(C(F)(F)F)cc2-c2ccc(CNS(C)(=O)=O)cc2)cn1 | 125 to 126
COc1ccc(-n2nc(C(=O)C(C)C)cc2-c2ccc(OCCNS(C)(=O)=O)cc2)cn1 | 155.6 to 155.8
COc1ccc(-n2nc(C(C)C)cc2-c2ccc(CNS(C)(=O)=O)cc2)cc1 | 130.9 to 131

SMILES | melting point [°C]
COc1ccc(-n2nc(OCC(F)(F)F)cc2-c2ccc(CNS(C)(=O)=O)cc2)cn1 | 130 to 131
COc1ccc(-n2nc(SC)cc2-c2ccc(OCCNS(C)(=O)=O)cc2)cc1 | 165 to 166
C=C(C)c1cc(-c2ccc(OCCNC(N)=O)cc2)n(-c2ccc(OC)nc2)n1 | 94 to 98
COc1ccc(-n2nc(OC)cc2-c2ccc(OCCNC(N)=O)cc2)cc1 | 108 to 111
CCOc1cc(-c2ccc(OCCNC(N)=O)cc2)n(-c2ccc(OC)cc2)n1 | 154.2 to 154.4
COc1ccc(-n2nc(OCC(=O)N(C)C)cc2-c2ccc(OCCO)cc2)cc1 | 106.6 to 107.1
COc1ccc(-n2nc(OC)cc2-c2ccc(OCCO)cc2)cn1 | 92.2 to 92.5
COCCOc1cc(-c2ccc(OCCNC(N)=O)cc2)n(-c2ccc(OC)cc2)n1 | 131 to 132
COc1ccc(-n2nc(OC)cc2-c2ccc(OCCNC(N)=O)cc2)cn1 | 192.6 to 192.7
CCOc1cc(-c2ccc(OCCNC(N)=O)cc2)n(-c2ccc(OC)nc2)n1 | 133 to 138
COc1ccc(-n2nc(C3CC3)cc2-c2ccc(OCCNC(N)=O)cc2)cn1 | 94 to 96
COc1ccc(-n2nc(OCC(F)(F)F)cc2-c2ccc(OCCNC(N)=O)cc2)cc1 | 130 to 132
COc1ccc(-n2nc(OCC(F)F)cc2-c2ccc(OCCNC(N)=O)cc2)cn1 | 146.9 to 147.3
CCN(C)C(=O)c1cc(-c2ccc(CNC(N)=O)cc2)n(-c2ccc(OC)cc2)n1 | 184.7 to 185.1
CCN(C)C(=O)c1cc(-c2ccc(CNC(N)=O)cc2)n(-c2ccc(OC)nc2)n1 | 172.6 to 172.8
COc1ccc(-n2nc(C(C)C)cc2-c2ccc(CNC(N)=O)cc2)cn1 | 139 to 144
COc1ccc(-n2nc(C(=O)C(C)C)cc2-c2ccc(CNC(N)=O)cc2)cn1 | 157 to 157.3
COc1ccc(-n2nc(OC)cc2-c2ccc(CNC(N)=O)cc2)cc1 | 206 to 260.9
